Test results published in ChEMBL document CHEMBL1150181, “Chemistry of Sponges, VIII. Anomoian A, a Bromotyrosine Derivative from Anomoiantbella popeae” (J Nat Prod, 1990).
Active and inactive are the calls of the source.

Assays:
Format in all cases: functional, organism-based
Staphylococcus aureus = assay: Antimicrobial activity against Staphylococcus aureus at 10 ug/disk
Bacillus subtilis = assay: Antimicrobial activity against Bacillus subtilis at 5 ug/disk
Candida albicans = assay: Antimicrobial activity against Candida albicans at 25 ug/disk

Measured: Activity

CNC(Cc1cc(Br)c(OC)c(Br)c1)C(=O)NCCCOc1c(Br)cc(CCN(C)C)cc1Br (stereo not drawn)
active: all assays above
